Measurements: ChEMBL document CHEMBL4680201, “Design, synthesis, and pharmacological evaluation of 4- or 6-phenyl-pyrimidine derivatives as novel and selective Janus kinase 3 inhibitors” (Eur J Med Chem, 2020)

How the values were obtained:
[1] = target: EGFR (Epidermal growth factor receptor) (Homo sapiens, UniProt P00533); assay: Inhibition of recombinant human GST-tagged EGFR (668 to 1210 residues) expressed in baculovirus expression system at 100 nM using Tyr04 peptide as substrate incubated for 1 hr by Z'lyte assay relative to control; conditions: probe Tyr04 peptide
[2] = Apparent volume of distribution in ICR mouse at 10 mg/kg, iv administered as single dose by LC-MS/MS analysis; assay type: ADME, organism-based; conditions: in vivo, read-out: Vz
[3] = target: Non-receptor tyrosine-protein kinase TYK2 (Homo sapiens, UniProt P29597); assay: Inhibition of recombinant human N-terminal GST-tagged TYK2 cytoplasmic domain (833 to 1187 residues) expressed in baculovirus expression system using TK-substrate-biotin preincubated for 5 mins followed by substrate addition and measured after 30 mins by HTRF assay
[4] = target: T1, ITK (Tyrosine-protein kinase ITK/TSK) (Homo sapiens, UniProt Q08881); assay: Inhibition of recombinant human GST-tagged full length ITK expressed in baculovirus expression system at 100 nM using Tyr01 peptide as substrate incubated for 1 hr by Z'lyte assay relative to control; conditions: probe Tyr01 peptide
T1 sequence (Q08881 whole entry): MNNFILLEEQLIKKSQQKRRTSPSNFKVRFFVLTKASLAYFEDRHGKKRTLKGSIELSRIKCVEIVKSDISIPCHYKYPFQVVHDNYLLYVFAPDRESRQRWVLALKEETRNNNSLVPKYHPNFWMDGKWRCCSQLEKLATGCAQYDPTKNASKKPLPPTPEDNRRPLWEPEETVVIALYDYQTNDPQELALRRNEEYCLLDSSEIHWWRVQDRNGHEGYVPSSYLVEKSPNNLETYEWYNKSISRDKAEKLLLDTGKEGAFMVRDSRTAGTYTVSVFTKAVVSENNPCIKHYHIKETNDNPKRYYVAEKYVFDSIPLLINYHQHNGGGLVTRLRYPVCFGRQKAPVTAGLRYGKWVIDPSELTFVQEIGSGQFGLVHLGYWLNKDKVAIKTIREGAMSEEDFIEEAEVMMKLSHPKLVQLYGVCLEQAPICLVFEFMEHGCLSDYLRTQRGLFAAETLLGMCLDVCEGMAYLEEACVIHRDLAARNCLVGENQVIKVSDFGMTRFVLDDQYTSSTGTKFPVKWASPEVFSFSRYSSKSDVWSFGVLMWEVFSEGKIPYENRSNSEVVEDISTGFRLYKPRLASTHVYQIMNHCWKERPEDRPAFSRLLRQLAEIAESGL

[5] = target: T2, Tyrosine-protein kinase JAK3 (Homo sapiens, UniProt P52333)
T2 sequence (P52333 whole entry): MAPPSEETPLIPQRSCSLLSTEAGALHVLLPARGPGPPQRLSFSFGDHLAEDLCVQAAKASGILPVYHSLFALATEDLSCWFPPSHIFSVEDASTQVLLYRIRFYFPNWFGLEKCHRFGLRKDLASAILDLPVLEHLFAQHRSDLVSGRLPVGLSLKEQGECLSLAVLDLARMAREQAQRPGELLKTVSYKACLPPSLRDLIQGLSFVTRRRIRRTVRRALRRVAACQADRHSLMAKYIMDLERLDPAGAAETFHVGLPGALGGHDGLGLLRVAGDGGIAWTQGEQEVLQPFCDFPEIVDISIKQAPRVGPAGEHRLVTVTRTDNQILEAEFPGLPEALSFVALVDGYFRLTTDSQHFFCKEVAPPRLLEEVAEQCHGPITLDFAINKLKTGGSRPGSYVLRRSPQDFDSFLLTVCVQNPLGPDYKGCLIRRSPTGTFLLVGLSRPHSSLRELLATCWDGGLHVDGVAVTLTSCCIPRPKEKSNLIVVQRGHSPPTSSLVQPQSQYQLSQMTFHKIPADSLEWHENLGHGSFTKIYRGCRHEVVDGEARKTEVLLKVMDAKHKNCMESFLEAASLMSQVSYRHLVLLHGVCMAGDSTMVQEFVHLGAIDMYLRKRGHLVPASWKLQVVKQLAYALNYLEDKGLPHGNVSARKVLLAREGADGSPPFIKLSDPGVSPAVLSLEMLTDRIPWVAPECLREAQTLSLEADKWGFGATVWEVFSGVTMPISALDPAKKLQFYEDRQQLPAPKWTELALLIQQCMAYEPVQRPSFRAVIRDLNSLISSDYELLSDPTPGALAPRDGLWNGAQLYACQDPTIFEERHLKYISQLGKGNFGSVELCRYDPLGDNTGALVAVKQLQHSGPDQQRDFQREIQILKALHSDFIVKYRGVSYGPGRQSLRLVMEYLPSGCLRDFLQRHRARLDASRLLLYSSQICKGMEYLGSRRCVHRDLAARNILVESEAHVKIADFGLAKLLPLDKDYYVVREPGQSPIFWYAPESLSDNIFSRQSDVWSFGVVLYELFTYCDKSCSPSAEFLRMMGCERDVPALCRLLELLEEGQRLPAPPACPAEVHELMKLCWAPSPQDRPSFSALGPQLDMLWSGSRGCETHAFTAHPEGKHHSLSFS

[6] = Cmax in ICR mouse at 10 mg/kg, iv administered as single dose by LC-MS/MS analysis; assay type: ADME, organism-based; design: route intravenous, dose 10 mg/kg; conditions: in vivo
[7] = AUC (0 to infinity) in ICR mouse at 10 mg/kg, iv administered as single dose by LC-MS/MS analysis; assay type: ADME, organism-based; design: route intravenous, time infinity, dose 10 mg/kg; conditions: in vivo
[8] = target: Tyrosine-protein kinase JAK2 (Homo sapiens, UniProt O60674); assay type: ADME
RAW264.7 = assay: Cytotoxicity against mouse RAW264.7 cells assessed as reduction in cell viability at 10 uM measured after 72 hrs by MTS assay; assay type: cell-based; conditions: raw264.7, 72 h
[9] = target: ERBB2 (Receptor tyrosine-protein kinase erbB-2) (Homo sapiens, UniProt P04626); assay: Inhibition of His-tagged human recombinant ERBB2 (676 to 1255 residues) expressed in baculovirus expression system at 100 nM using Tyr 06 as substrate preincubated for 1 hr in presence of ATP by Z'-LYTE assay relative to control; conditions: probe Tyr 06
[10] = target: T3, Tyrosine-protein kinase JAK3 (Homo sapiens) (UniProt P52333); assay: Inhibition of recombinant human GST-tagged JAK3 catalytic domain (781 to 1124 residues) expressed in baculovirus expression system using Tyr06 peptide as substrate at 100 nM incubated for 1 hr by Z'lyte assay relative to control
T3 sequence (whole entry): T2 sequence (P52333 whole entry)

[11] = Cmax in ICR mouse at 30 mg/kg, po administered as single dose via gavage by LC-MS/MS analysis; assay type: ADME, organism-based; design: route oral, dose 30 mg/kg; conditions: in vivo
[12] = Cytotoxicity against resting mouse T cells assessed as reduction in cell viability at 10 uM measured after 72 hrs by MTS assay; assay type: cell-based
[13] = Apparent volume of distribution in ICR mouse at 30 mg/kg, po administered as single dose via gavage by LC-MS/MS analysis; assay type: ADME, organism-based; conditions: in vivo
[14] = Toxicity in Balb/c mouse model of oxazolone-induced delayed type hypersensitivity assessed as change in body weight up to 30 mg/kg, po; assay type: organism-based; conditions: in vivo
[15] = Oral bioavailability in ICR mouse at 30 mg/kg administered as single dose via gavage by LC-MS/MS analysis; assay type: ADME, organism-based; conditions: in vivo

Chain of Tyrosine-protein kinase JAK2 (O60674 whole entry): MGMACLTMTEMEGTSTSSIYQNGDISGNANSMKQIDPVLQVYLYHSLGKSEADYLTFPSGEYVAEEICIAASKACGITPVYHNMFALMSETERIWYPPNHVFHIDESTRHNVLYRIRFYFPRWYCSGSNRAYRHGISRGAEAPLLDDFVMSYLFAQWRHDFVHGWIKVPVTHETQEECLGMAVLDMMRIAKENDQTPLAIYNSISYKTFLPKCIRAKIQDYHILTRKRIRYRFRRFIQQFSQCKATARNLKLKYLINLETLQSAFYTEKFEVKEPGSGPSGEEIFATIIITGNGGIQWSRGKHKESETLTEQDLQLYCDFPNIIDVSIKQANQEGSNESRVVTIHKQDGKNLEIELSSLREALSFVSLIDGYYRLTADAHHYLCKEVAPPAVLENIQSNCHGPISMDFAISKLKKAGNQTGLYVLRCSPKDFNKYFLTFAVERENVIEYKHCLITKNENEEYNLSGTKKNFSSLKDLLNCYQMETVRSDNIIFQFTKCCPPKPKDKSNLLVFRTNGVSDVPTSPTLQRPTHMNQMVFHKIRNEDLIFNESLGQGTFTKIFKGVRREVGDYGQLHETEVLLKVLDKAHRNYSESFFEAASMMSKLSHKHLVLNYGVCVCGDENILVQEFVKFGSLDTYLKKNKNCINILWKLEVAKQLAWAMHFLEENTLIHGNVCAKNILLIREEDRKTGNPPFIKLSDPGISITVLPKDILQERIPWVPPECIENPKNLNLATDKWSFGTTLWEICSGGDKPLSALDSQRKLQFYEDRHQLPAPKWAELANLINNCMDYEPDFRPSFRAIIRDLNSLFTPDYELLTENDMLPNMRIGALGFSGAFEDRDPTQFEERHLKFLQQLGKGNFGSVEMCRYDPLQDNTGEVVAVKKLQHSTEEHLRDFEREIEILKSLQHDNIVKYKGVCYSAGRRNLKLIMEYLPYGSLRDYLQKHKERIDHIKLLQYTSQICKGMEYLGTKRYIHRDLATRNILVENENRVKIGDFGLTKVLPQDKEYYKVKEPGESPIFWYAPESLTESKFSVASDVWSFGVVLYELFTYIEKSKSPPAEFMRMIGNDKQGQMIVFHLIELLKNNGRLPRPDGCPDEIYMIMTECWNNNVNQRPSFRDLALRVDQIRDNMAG
Chain of ERBB2 (Receptor tyrosine-protein kinase erbB-2) (P04626 whole entry, the tested form may be a part): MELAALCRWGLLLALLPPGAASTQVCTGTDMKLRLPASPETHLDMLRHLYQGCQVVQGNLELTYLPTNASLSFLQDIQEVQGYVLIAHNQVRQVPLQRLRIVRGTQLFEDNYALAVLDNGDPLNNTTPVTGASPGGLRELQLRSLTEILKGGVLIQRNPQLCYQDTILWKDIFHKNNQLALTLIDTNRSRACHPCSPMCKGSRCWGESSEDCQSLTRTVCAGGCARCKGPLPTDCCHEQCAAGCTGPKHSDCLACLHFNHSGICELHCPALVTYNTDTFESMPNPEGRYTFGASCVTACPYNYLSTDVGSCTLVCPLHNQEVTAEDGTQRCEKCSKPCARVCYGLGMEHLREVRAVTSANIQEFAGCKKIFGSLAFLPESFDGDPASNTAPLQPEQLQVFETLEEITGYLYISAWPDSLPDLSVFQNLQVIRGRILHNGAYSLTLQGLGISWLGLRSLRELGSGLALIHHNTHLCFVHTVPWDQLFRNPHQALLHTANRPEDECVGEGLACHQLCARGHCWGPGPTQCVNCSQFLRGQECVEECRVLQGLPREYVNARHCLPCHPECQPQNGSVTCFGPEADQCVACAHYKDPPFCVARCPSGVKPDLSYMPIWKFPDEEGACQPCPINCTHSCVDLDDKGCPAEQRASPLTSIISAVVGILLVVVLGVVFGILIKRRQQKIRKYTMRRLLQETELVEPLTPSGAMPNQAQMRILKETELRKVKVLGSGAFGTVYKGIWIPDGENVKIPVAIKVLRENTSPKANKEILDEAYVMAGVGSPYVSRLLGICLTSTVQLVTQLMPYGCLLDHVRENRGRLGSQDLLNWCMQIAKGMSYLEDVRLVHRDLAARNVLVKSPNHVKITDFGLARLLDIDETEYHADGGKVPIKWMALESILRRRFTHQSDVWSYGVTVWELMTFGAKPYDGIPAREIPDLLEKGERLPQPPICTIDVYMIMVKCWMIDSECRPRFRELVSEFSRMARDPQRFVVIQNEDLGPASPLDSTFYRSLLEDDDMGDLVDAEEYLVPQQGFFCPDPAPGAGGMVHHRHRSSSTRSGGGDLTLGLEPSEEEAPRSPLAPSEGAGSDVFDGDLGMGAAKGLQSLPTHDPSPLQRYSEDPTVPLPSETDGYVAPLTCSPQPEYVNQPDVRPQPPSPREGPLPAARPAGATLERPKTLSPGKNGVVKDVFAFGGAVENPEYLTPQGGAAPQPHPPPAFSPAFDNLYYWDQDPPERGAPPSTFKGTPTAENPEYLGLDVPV
Chain of Non-receptor tyrosine-protein kinase TYK2 (P29597 whole entry, the tested form may be a part): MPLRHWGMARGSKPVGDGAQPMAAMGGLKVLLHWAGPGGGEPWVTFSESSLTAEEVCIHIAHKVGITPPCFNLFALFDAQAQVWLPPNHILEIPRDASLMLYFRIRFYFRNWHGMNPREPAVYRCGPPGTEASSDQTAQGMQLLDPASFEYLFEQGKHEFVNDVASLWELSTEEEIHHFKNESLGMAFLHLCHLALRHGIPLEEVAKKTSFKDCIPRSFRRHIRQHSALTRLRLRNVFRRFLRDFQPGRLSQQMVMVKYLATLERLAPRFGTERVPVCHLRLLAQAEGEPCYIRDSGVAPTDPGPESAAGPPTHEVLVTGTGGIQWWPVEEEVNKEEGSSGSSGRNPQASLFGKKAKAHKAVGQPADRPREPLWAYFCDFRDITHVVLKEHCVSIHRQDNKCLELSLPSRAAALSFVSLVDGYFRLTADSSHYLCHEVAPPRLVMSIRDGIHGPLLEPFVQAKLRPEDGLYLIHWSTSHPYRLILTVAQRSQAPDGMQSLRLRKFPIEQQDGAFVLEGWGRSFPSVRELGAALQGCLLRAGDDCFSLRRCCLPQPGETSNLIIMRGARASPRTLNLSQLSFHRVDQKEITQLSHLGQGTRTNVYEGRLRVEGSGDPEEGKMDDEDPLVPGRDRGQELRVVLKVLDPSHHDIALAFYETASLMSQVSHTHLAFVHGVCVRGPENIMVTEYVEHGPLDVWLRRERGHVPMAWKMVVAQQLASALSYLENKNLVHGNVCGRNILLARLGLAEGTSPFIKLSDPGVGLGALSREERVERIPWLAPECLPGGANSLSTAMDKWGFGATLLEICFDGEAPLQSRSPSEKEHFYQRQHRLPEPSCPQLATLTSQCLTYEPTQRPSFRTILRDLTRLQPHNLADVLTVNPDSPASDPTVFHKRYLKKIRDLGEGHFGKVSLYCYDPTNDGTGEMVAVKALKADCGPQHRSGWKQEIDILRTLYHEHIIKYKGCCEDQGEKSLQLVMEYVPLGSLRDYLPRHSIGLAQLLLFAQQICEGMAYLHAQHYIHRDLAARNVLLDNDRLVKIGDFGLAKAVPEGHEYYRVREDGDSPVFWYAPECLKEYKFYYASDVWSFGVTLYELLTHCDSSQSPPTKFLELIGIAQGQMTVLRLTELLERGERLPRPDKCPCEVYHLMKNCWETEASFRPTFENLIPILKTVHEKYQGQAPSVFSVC
Chain of EGFR (Epidermal growth factor receptor) (P00533 whole entry, the tested form may be a part): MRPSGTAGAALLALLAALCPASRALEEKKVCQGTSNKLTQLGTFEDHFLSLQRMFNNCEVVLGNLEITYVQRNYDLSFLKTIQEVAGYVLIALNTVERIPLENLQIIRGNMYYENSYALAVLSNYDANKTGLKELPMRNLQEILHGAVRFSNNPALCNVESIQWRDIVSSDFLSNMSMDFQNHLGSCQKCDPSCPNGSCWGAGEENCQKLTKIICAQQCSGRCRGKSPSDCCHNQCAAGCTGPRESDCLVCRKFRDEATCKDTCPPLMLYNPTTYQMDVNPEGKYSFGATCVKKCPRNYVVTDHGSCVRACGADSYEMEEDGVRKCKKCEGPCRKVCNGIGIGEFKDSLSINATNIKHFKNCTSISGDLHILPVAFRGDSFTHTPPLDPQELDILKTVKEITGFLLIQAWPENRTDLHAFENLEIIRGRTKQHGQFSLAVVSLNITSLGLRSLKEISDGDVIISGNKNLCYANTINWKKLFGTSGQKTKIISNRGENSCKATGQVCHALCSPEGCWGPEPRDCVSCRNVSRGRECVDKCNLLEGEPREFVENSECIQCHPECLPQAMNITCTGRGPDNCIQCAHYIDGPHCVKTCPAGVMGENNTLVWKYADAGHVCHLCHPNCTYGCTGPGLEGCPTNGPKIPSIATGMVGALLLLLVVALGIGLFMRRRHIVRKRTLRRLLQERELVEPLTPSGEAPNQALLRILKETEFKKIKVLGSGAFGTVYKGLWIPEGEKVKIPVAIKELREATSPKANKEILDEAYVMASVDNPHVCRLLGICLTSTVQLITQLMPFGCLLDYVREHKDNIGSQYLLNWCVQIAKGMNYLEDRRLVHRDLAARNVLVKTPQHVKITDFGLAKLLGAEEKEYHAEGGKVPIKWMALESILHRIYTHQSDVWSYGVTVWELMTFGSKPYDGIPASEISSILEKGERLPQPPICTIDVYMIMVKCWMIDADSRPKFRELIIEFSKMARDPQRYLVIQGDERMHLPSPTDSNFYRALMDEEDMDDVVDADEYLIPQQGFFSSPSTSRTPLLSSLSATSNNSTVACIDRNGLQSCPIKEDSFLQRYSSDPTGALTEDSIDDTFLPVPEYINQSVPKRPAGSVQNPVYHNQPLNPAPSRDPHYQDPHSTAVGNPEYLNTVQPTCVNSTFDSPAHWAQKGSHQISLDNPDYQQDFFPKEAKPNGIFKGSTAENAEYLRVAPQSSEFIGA

inhibition at 1 h, 0.1 µM [1]: 1.2%
Vd [2]: 8.36 L/kg
IC50 [3]: 2.78 µM
inhibition at 1 h, 0.1 µM [4]: 2.3%
IC50 [5]: 0.0017 µM
Cmax [6]: 8.76 µg/mL
AUC(0-inf) [7]: 1.27 µg·h/mL
IC50 [8]: 1 µM
inhibition at 1 h, 0.1 µM [9]: 19.2%
inhibition [10]: 100%
Cmax [11]: 2.01 µg/mL
Vz [13]: 220.42 L/kg
bioavailability [15]: 23.8%
SMILES: C=CC(=O)Nc1ccc(-c2ccnc(Nc3ccc(N4CCOCC4)cc3)n2)cc1
Activity (RAW264.7): Non-Toxic
Activity [12]: Non-Toxic
Activity [14]: Non-Toxic
